This note sets out measurements from EP4483954A1 (Masarykova Univerzita, priority 2023, dated 2025).

What all share (type): biochemical
Experiment [1] addresses T1, PIM1 (h) (Homo sapiens, UniProt P11309).
T1 construct: purchased Eurofins (KinaseProfiler)
Description: radiometric kinase assay (KinaseProfiler, Eurofins), PIM1. The conditions noted are these: in vitro radiometric kinase assay, tested at 1 nM to 10 000 nM, no pre-incubation; read-out: inhibitory activities (IC50 values) PIM1. The protocol: (§1) The compounds were profiled in the radiometric assays (KinaseProfiler, Eurofins).
Briefly, kinases were diluted in the buffer shown below prior to addition to the reaction mix: • CDKL3, TAF1L: 20 mM Tris/HCl pH 8.5, 0.2 mM EDTA, 0.1% β-mercaptoethanol, 0.01% Brij-35, 5% glycerol, 1 mg/ml BSA; • Haspin: 15 mM MOPS, 0.75 mM EDTA, 0.0075% Brij-35, 3.75% Glycerol, 150 mM NaCl, 0.1% β-mercaptoethanol, 1 mg/mLBSA; • CDKL4, CLK2, PIM1, TRB2: […], 1 mM EDTA, 0.01% Brij-35, 5% Glycerol, 0.1% β-mercaptoethanol, 1 mg/mL BSA.
(§2) All compounds were prepared to 50x final assay concentration in 100% DMSO. This working stock of the compound was added to the assay well as the first component in the reaction, followed by the remaining components as detailed in the general assay protocols below. There was no pre-incubation step between the compound and the kinase prior to initiation of the reaction.
PIM1 (h) was incubated with 8 mM MOPS pH 7.0, 0.2 mM EDTA, 100 µM KKRNRTLTV (SEQ ID NO. 4), 10 mM magnesium acetate and γ-^33P-ATP (specific activity and concentration as required). The reaction was initiated by the addition of the Mg/ATP mix. After incubation for 40 minutes at room temperature, the reaction was stopped by the addition of phosphoric acid to a concentration of 0.5%. An aliquot of the reaction was then spotted onto a filter and washed four times for 4 minutes in 0.425% phosphoric acid and once in methanol prior to drying and scintillation counting.
(§3) Kinase activity data were expressed as the percent remaining kinase activity in tested samples compared to the vehicle (DMSO) reactions. The compounds were tested at the following concentrations: 1 nM, 3 nM, 10 nM, 30 nM, 100 nM, 300 nM, 1000 nM, 3000 nM, and 10 000 nM; IC50 values and curve fits were then obtained.

The target in experiment [2] is T2, DYRK2 (h) (Homo sapiens, UniProt Q92630).
T2 construct: purchased Eurofins (KinaseProfiler)
T2 sequence (Q92630 1-601): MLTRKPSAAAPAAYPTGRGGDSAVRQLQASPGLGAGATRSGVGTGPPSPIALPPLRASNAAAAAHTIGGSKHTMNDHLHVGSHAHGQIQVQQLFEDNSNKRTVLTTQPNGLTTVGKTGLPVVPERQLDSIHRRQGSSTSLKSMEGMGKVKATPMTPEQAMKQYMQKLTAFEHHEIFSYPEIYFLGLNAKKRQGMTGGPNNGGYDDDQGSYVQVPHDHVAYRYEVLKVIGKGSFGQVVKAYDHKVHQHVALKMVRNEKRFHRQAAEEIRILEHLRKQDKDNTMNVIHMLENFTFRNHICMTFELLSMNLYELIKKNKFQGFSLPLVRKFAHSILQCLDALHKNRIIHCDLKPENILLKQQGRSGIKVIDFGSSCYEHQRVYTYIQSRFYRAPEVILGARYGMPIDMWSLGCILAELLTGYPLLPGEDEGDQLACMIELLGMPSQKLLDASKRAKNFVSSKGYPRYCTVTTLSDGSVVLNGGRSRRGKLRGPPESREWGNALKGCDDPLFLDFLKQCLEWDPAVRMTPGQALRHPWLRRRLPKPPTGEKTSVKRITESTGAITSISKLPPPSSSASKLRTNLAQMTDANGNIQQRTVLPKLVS
Description: radiometric kinase assay (KinaseProfiler, Eurofins), DYRK2. Conditions: in vitro radiometric kinase assay, tested at 1 nM to 10 000 nM, no pre-incubation; read-out: inhibitory activities (IC50 values) DYRK2. The protocol:
as §1, §2
DYRK2 (h) was incubated with 8 mM MOPS pH 7.0, 0.2 mM EDTA, 2 mg/mL casein, 10 mM magnesium acetate and γ-^33P-ATP (specific activity and concentration as required). The reaction was initiated by the addition of the Mg/ATP mix. After incubation for 40 minutes at room temperature, the reaction was stopped by the addition of phosphoric acid to a concentration of 0.5%. An aliquot of the reaction was then spotted onto a filter and washed four times for 4 minutes in 0.425% phosphoric acid and once in methanol prior to drying and scintillation counting.
as §3

Experiment [3] concerns the target T3, Haspin (h) (Homo sapiens, UniProt Q8TF76).
T3 construct: purchased Eurofins (KinaseProfiler)
T3 sequence (Q8TF76 1-798): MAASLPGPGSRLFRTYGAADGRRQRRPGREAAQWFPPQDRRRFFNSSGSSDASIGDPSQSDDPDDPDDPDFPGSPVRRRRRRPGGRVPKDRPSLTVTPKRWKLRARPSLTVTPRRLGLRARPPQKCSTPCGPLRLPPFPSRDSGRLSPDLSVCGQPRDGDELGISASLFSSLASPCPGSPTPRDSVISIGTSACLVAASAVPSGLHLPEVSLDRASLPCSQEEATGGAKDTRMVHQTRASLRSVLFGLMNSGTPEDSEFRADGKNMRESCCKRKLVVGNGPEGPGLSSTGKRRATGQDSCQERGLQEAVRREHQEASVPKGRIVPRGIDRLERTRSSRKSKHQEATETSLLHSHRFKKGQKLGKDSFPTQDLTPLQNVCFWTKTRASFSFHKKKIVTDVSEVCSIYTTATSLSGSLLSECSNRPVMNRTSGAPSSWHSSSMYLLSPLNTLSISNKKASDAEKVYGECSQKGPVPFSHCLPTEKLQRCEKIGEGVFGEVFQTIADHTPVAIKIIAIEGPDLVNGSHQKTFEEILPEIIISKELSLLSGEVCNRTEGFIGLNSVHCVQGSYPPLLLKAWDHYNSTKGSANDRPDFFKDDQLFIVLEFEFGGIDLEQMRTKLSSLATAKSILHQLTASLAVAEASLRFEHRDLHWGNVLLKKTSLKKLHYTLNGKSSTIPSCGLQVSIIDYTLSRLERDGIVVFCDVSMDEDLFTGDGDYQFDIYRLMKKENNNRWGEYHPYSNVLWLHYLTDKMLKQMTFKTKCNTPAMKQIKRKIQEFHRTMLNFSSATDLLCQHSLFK
The experiment can be described thus: radiometric kinase assay (KinaseProfiler, Eurofins), Haspin. The conditions noted are these: in vitro radiometric kinase assay, tested at 1 nM to 10 000 nM, no pre-incubation; read-out: inhibitory activities (IC50 values) Haspin. Put shortly: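 Human Haspin in 8 mM MOPS pH 7.0 with 500 µM RARTLSFAEPG, 10 mM Mg acetate and γ-33P-ATP; compound added without preincubation. Reaction ran 40 min at room temperature, then filter-bound 33P was counted. Nine concentrations from 1 to 10 000 nM gave % remaining activity versus DMSO, and IC50 came from curve fit.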

T1 sequence (P11309 whole entry): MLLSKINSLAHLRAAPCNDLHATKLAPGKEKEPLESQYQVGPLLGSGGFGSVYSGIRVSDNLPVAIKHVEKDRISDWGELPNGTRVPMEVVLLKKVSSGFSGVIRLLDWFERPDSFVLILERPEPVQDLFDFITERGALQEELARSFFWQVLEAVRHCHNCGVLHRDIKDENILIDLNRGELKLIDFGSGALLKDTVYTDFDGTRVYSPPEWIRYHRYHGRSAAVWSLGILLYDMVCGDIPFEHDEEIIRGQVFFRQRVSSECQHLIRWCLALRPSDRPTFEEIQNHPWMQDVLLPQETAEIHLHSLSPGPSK

With `c1cc(-c2csc3ccc(Nc4cc[nH]n4)nc23)ccn1` [Preparative Example 101, N-(1H-pyrazol-3-yl)-3-(pyridin-4-yl)thieno[3,2-b]pyridin-5-amine], the IC50 in experiment [1] lay in the range of 0.5 to 3 µM; in experiment [2], 0.5 to 3 µM; in experiment [3], 0.02 to 0.099 µM.
As for `Cn1cc(-c2ccc3scc(-c4cnn(Cc5ccccc5)c4)c3n2)cn1`, the IC50 in experiment [1] was in the range of 0.02 to 0.099 µM; in experiment [2] it was 3 to 10 µM; in experiment [3], 0.1 to 0.499 µM.
In the same order, the values of `Cc1cc(-c2csc3ccc(-c4cnn(C)c4)nc23)cc(C)n1` [Preparative Example 30, 3-(2,6-dimethylpyridin-4-yl)-5-(1-methyl-1H-pyrazol-4-yl)thieno-[3,2-b]pyridine] are 0.1 to 0.499 µM, 0.5 to 3 µM and 0.1 to 0.499 µM.
In the same order, the values of `COc1cc(-c2ccn(C)n2)nc2c(-c3ccncc3)csc12` [Preparative Example 165, 7-methoxy-5-(1-methyl-1H-pyrazol-3-yl)-3-(pyridin-4-yl)thieno[3,2-b]pyridine] are 3 to 10 µM, 3 to 10 µM and 0.1 to 0.499 µM.
In the same order, the values of `Cn1cc(-c2ccc3scc(-c4ccncc4)c3n2)nn1` [Preparative Example 93, 5-(1-methyl-1H-1,2,3-triazol-4-yl)-3-(pyridin-4-yl)thieno[3,2-b]pyridine] are 0.5 to 3 µM, 3 to 10 µM and 0.5 to 3 µM.
On to `Cn1cc(-c2ccc3scc(Nc4ccccc4)c3n2)cn1` [Preparative Example 76, 5-(1-methyl-1H-pyrazol-4-yl)-N-phenylthieno[3,2-b]pyridin-3-amine], for which the IC50 in experiment [1], in experiment [2] and in experiment [3] was 0.1 to 0.499 µM throughout.
Take `Cn1cc(-c2ccc3scc(C(O)c4ccccc4)c3n2)cn1` (stereo not drawn) [Preparative Example 74]: the values for the concentration for half-maximal inhibition (IC50) in experiment [1], in experiment [2] and in experiment [3] were 0.5 to 3 µM, 3 to 10 µM and 3 to 10 µM, respectively.
For `Cn1cc(-c2ccc3scc(-c4cccnc4)c3n2)cn1` [Preparative Example 11, 5-(1-methyl-1H-pyrazol-4-yl)-3-(pyridin-3-yl)thieno[3,2-b]pyridine], the IC50 in experiment [1], in experiment [2] and in experiment [3] was 0.5 to 3 µM throughout.
As to `Cn1cc(-c2ccc3scc(-c4ccnc(F)c4)c3n2)cn1` [Preparative Example 22, 3-(2-fluoropyridin-4-yl)-5-(1-methyl-1H-pyrazol-4-yl)thieno[3,2-b]pyridine], the IC50 in experiment [1] lay within 0.1 to 0.499 µM; in experiment [2] it was 0.5 to 3 µM; in experiment [3] it was 0.1 to 0.499 µM.
As for `Cn1cc(-c2ccc3scc(-c4ccncc4F)c3n2)cn1` [Preparative Example 36, 3-(3-fluoropyridin-4-yl)-5-(1-methyl-1H-pyrazol-4-yl)thieno[3,2-b]pyridine], the IC50 in experiment [1] was 0.1 to 0.499 µM; in experiment [2], 0.5 to 3 µM; in experiment [3] it was 0.1 to 0.499 µM.
With `CC(C)n1cc(-c2ccc3scc(-c4ccncc4)c3n2)cn1` [Preparative Example 79, 5-(1-isopropyl-1H-pyrazol-4-yl)-3-(pyridin-4-yl)thieno[3,2-b]pyridine], the figures for the IC50 in experiment [1], in experiment [2] and in experiment [3] were 3 to 10 µM, 3 to 10 µM and 0.5 to 3 µM, respectively.
Consider `Cn1cc(-c2ccc3scc(-c4ccncc4)c3n2)c(NC(=O)OC(C)(C)C)n1` [Preparative Example 83, tert-butyl(1-methyl-4-(3-(pyridin-4-yl)thieno[3,2-b]pyridin-5-yl)-1H-pyrazol-3-yl)carbamate], for which the half-inhibitory concentration (IC50) in experiment [1], in experiment [2] and in experiment [3] was 3 to 10 µM each time.
For the compound `Cn1cc(-c2ccc3scc(-c4ccncc4)c3n2)c(N)n1` [Preparative Example 84, 1-methyl-4-(3-(pyridin-4-yl)thieno[3,2-b]pyridin-5-yl)-1H-pyrazol-3-amine], the half-inhibitory concentration (IC50) in experiment [1], in experiment [2] and in experiment [3] was 3 to 10 µM each time.

In general, IC50 refers to the concentration at which inhibition is half-maximal.
